Source: patent publication US12569452B2, “Ophthalmic compositions comprising F6H8” (NOVALIQ GMBH, priority 2017, dated 2026)

Experiments:
Format in all cases: in vivo, human
[1] = tested on: patients with mild to moderate dry eye disease; assay: Lipid Layer Thickness (LLT) of the tear film with LipiView Interferometer, Example 2; conditions: for Lipid Layer Thickness measured in the morning before first daily dosing (relative change from baseline in %): 4 times daily dosing
Procedure: (§1) The study is conducted to evaluate the influence of 1-perfluorohexyl-octane (F6H8, NovaTears®) on tear film thickness in patients with mild to moderate dry eye disease. Herein the administration of 1-perfluorohexyl-octane is compared to Hydrabak (0.9% sodium chloride, Laboratoires Théa).
(§2) 48 patients (safety population) are randomized (1:1 ratio) to receive either F6H8 or Hydrabak. One drop of F6H8 (droplet volume=10-11 μl) or Hydrabak is instilled in each eye 4 times daily for 30 days. DED relevant clinical measures are recorded at Visit 1 (day 0, baseline), Visit 2 (15±2 days) and Visit 3 (30±3 days). The primary outcome variable includes Tear film thickness (TFT) as measured with high resolution optical coherence tomography (OCT), while secondary outcome variables comprised Lipid Layer Thickness (LLT) of the tear film (with LipiView Interferometer), Non-Invasive Tear Break Up Time (NITFBUT) with Bon Antares Tear Film Topographer, Dynamic Meibomian Gland Imaging (DMI) with LipiView Interferometer, Blink frequency (with LipiView interferometer), Dry Eye Visual Analogue Scale (VAS), Corneal fluorescein staining, Conjunctival lissamine green staining, Schirmer I test, Tear Film Break Up Time (TFBUT), Ocular Surface Disease Index (OSDI), Adverse Events (AEs) and others.

[2] = tested on: patients with mild to moderate dry eye disease; assay: Corneal fluorescein staining, Example 2; conditions: 4 times daily, 4 weeks
Procedure: as §2

[3] = tested on: patients with mild to moderate dry eye disease; assay: Adverse events, Example 2; conditions: 4 times daily for 30 days; all adverse effects mild, low incidence
Procedure: as §2

[4] = tested on: Dry Eye Disease (DED) patients with MGD involvement; assay: Eye Dryness Score on Visual Analog Scale (VAS), Phase 2 study Example 3; conditions: BID, 2, 4 and 8 weeks
Procedure: (§3) A Phase 2, Multi-Center, Randomized, Double-Masked, Saline-Controlled Study to Evaluate the Effect of 1-Perfluorohexyloctane (NOV03; F6H8) at two different dosing regimens on signs and symptoms of Dry Eye Disease (DED). The study was performed at 11 investigational cites in the United States. The study was reviewed and approved by the respective ethics committees and registered at www.clinicaltrials.gov (NCT03333057).
(§4) The study is performed to evaluate the safety, efficacy and tolerability of F6H8 at two different dosing regimens compared to saline on signs and symptoms of Dry Eye Disease.
(§5) Study subjects receive one of the following treatments over a period of 4 visits on day 1, 15, 30 and 60: • (1) F6H8 (NOV03), 4 times daily (QID); • (2) F6H8 (NOV03), 2 times daily (BID); • (3) Saline solution (0.9% sodium chloride solution), 4 times daily (QID); • (4) Saline Solution (0.9% sodium chloride solution), 2 times daily (BID).
(§6) In the BID treatment, study subjects instil bilaterally one drop in each lower eyelid conjunctival fornix two times daily. The instilled drop volume of F6H8 is about 10-12 μl, translating to a single dose of 13.5-16.2 mg (with F6H8 density=1.35 g/ml). […]

[5] = tested on: Dry Eye Disease (DED) patients with MGD involvement; assay: Corneal fluorescein staining (NEI scale), Phase 2 study Example 3; conditions: vs saline
Procedure: as §3, §4, §5, §6

[6] = tested on: Dry Eye Disease (DED) patients with MGD involvement; assay: Ocular Surface Disease Index (OSDI), Phase 2 study Example 3; conditions: BID, 2, 4 and 8 weeks
Procedure: as §3
The study is performed to evaluate the safety, efficacy and tolerability of F6H8 at two different dosing regimens compared to saline on signs and symptoms of Dry Eye Disease. […]
The subjects were asked to fill out an OSDI© questionnaire (see for example, Schiffman R M, et al., Arch Ophthalmol. 2000; 118:615-621) consisting of 12 questions, and asked to respond on a scale of 0 to 4, with 0 corresponding to ‘none of the time’ and 4 corresponding to “all of the time”. The questions assess dry eye symptoms experienced by the patient within past week in terms of the following ocular symptoms: sensitivity to light, gritty sensation, pain or sore eyes, blurriness, and poor vision; vision-related function, in terms of problems in: reading, driving at night, working on a computer or bank machine, watching television; and environmental factors or triggers i.e. discomfort during: windy conditions, places with low humidity, and areas with air condition. […]

[7] = tested on: patients with mild to moderate dry eye disease; assay: Tear film thickness (TFT) by high resolution optical coherence tomography, Example 2
Procedure: as §1, §2

[8] = tested on: Dry Eye Disease (DED) patients with MGD involvement; assay: Adverse events, Phase 2 study Example 3; conditions: daily dose 20-24 μl
Procedure: as §3, §4, §5
In the BID treatment, study subjects instil bilaterally one drop in each lower eyelid conjunctival fornix two times daily. The instilled drop volume of F6H8 is about 10-12 μl, translating to a single dose of 13.5-16.2 mg (with F6H8 density=1.35 g/ml).

CCCCCCCCC(F)(F)C(F)(F)C(F)(F)C(F)(F)C(F)(F)C(F)(F)F [F6H8, 1-perfluorohexyloctane]
Lipid Layer Thickness measured in the morning before first daily dosing (relative change from baseline in %) ([1]; 2 weeks): 6.83%
Lipid Layer Thickness measured in the morning before first daily dosing (relative change from baseline in %) ([1]; 4 weeks): 4.10%
LLT relative change from baseline, estimated least square mean difference F6H8 vs Hydrabak (post hoc MMRM) ([1]; values recorded before instillation): 16.34%
Corneal Staining reduction compared with Hydrabak group [2]: tended to be stronger reduced
Safety and tolerability in patients with DED [3]: safe and well tolerated
VAS symptoms of dryness (severity, frequency, awareness of dryness, blurred vision, sensitivity to light) over placebo [4]: highly statistical significant improvement
Total corneal fluorescein staining (reduction of ocular surface damage of total corneal region) ([5]; BID dosing regimen, 8 weeks): met its prespecified primary efficacy endpoint
Reduction of ocular surface damage of central, nasal and temporal corneal region ([5]; BID, fluorescein staining NEI scale): clear improvements
Symptoms of dryness by OSDI score incl. total OSDI score over placebo [6]: highly statistical significant improvement
Tear Film Thickness after continuous dosing 4-times daily (relative change from baseline in %) ([7]; 2 weeks, 10 min): 8.71%
Tear Film Thickness after continuous dosing 4-times daily (relative change from baseline in %) ([7]; 2 weeks, 20 min): 8.57%
Tear Film Thickness after continuous dosing 4-times daily (relative change from baseline in %) ([7]; 2 weeks, before instillation): 1.43%
Tear Film Thickness after continuous dosing 4-times daily (relative change from baseline in %) ([7]; 4 weeks, 10 min): 9.12%
Tear Film Thickness after continuous dosing 4-times daily (relative change from baseline in %) ([7]; 4 weeks, 20 min): 10.35%
Tear Film Thickness after continuous dosing 4-times daily (relative change from baseline in %) ([7]; 4 weeks, before instillation): 3.22%
Relative change (%) in Tear film thickness from baseline, F6H8 compared with Hydrabak (primary MMRM analysis) ([7]; 48 subjects of the safety population): significantly higher
Tear film thickness, least squares mean difference F6H8 vs Hydrabak (MMRM, post-hoc) ([7]; Visit 1, safety population 48 subjects): 1.29%
Tear film thickness, least squares mean difference F6H8 vs Hydrabak (MMRM, post-hoc) ([7]; Visit 2, safety population 48 subjects): 4.33%
Tear film thickness, least squares mean difference F6H8 vs Hydrabak (MMRM, post-hoc) ([7]; Visit 3, reached significance): 6.42%
Tear Film Thickness at study start (relative change from baseline in %) ([7]; single dose on Visit 1, 10 min after instillation): 13.39%
Tear Film Thickness at study start (relative change from baseline in %) ([7]; single dose on Visit 1, 20 min after instillation): 6.63%
Tear Film Thickness at study start (relative change from baseline in %) ([7]; single dose on Visit 1, 40 min after instillation): 4.64%
Tear Film Thickness at study start (relative change from baseline in %) ([7]; single dose on Visit 1, 60 min after instillation): 4.03%
Tear Film Thickness at study start (relative change from baseline in %) ([7]; single dose on Visit 1, 120 min after instillation): 4.76%
Tear Film Thickness at study start (relative change from baseline in %) ([7]; single dose on Visit 1, 240 min after instillation): 3.28%
Adverse effects, 2-times daily schedule (BID) [8]: trend towards less adverse effects
